Experiments:
Format in all cases: cell-based, human
A549 = test: Crystal Violet assay of BAL27862-resistant cell line versus parental line
Excerpt: (§1) BAL27862-resistant sublines of human non-small cell lung cancer (H460 ATCC reference HTB-177; A549 ATCC reference CCL-185), ovarian cancer (SKOV3 ATCC reference HTB-77) lines were generated by long-term selection in complete cell culture medium (RPMI-1640 containing 10% FCS; Sigma-Aldrich) by stepwise increasing concentrations of BAL27862. […] The resistant sublines were expanded at the highest tolerated BAL27862 concentration and subsequently frozen and stored in liquid nitrogen.
(§2) After medium was removed, cells were fixed and stained by adding 50 μl Crystal Violet Staining (0.2% Crystal Violet in 50% Methanol) per well. Plates were incubated for 1 hour at room temperature. Subsequently the stain was decanted and plates were washed 4 times with double-distilled water. Plates were air-dried for several hours. Stain was dissolved by adding 100 μl buffer (0.1 M Tris pH 7.5, 0.2% SDS, 20% Ethanol) per well and shaking the plates. Absorbance at 590 nm was measured using a SpectraMax M2e plate reader (Molecular Devices). Anti-proliferative IC50 values were calculated from concentration response curves using GraphPad Prism software. Resistance factors were calculated as a ratio of BAL27862 IC50 in the resistant line variant versus the IC50 in the parental line.

H460 = test: as above
Excerpt: as §1, §2

SKOV3 resistant 1 = test: as above
Excerpt: as §1, §2

SKOV3 resistant 2 = test: as above
Excerpt: as §1, §2

HeLa cells [1] = test: BUBR1 siRNA pool, tumour cell phenotype and cell number by immunostaining; conditions: 50 nM BAL27862, 24 hours, 48 hours after siRNA
Experimental: In order to show BUBR1 is a biomarker of resistance, siRNA experiments were performed. For siRNA experiments to assess effects on tumour cell phenotype and numbers (FIG. 8), HeLa (ATCC reference CCL-2) cervical cancer cells were cultured at 37° C. and 5% CO2 in DMEM with 10% FCS (Invitrogen). 1000 HeLa cells per well were seeded into black 384 well multititer plates (BD Falcon). Cells were reversely transfected with 20 nM non-targeting control siRNA (ON-Target-plus non-targeting pool D001810, Dharmacon) or a mixture of four BUBR1 siRNAs (ON-Target-plus Smartpool L-004101, Dharmacon, see sequence information below) using Dharmafect1 (Dharmacon, Thermo) transfection reagent. 48 hours after cell seeding and siRNA transfection, one replicate pair of siRNA clones was treated with BAL27862 (50 nM, 0.1% DMSO) and another replicate pair with control solution (0.1% DMSO) for 24 hours. […] Based on the immunostaining, the morphology of treated cells was analysed using a multiparametric approach (BD Pathway 855 fluorescence microscope; 20× objective) with appropriate software. The number of cells per well was also calculated based on Hoe33342 staining of nuclei. […]

HeLa cells [2] = test: YO-PRO assay of siRNA-treated cells; conditions: BUBR1 siRNA pool, 48 hours treatment
Experimental: For siRNA experiments to assess effects on BUBR1 expression levels by immunoblotting and effects on tumour cell proliferation and viability using the YO-PRO assay (FIGS. 7, 9,10 and 11), and Crystal Violet Assay (FIGS. 12 and 13), cells were seeded in 6 well plates at an appropriate density: HeLa (cervical cancer cells; ATCC reference CCL-2) 2.5E+04 (for YO-PRO) or 4.0E+04 (for Crystal Violet) cells per well, H460 (NSCLC cells; ATCC reference HTB-177) 5.0E+04 cells per well, MCF-7 (breast carcinoma cells; ATCC reference HTB-22) 2.4E+05 cells per well, Panc1 (pancreatic cancer cells, ATCC reference CRL-1469) and HCT116 (colon cancer cells, ATCC reference CCI-247) 8E+04 cells per well, and were cultured at 37° C. and 5% CO2 in RPMI-1640 or DMEM containing 10% FCS (complete medium). […]
12.5 μl YO-PRO®-1 iodide (491/509)(Invitrogen/Molecular Probes, # Y-3603; 1 mM in DMSO) were added to 1 ml 5-times concentrated YO-PRO buffer (100 mM Na-citrate, pH 4.0; 134 mM NaCl) to produce the YO-PRO Mix. […] The uptake of YO-PRO dye into cells was assessed by using a SpectraMax M2^e plate reader (Molecular Devices) using 485 nm excitation and 538 nm emission at a cutoff of 530 nm. […] Fluorescent read-out was performed in a SpectraMax M2^e plate reader (Molecular Devices) using 485 nm excitation and 538 nm emission at a cut off of 530 nm. […]

N#CCCNc1nonc1-c1nc2ccccc2n1CC(=O)c1ccc(N)cc1 [BAL27862, 3-(4-{1-[2-(4-Amino-phenyl)-2-oxo-ethyl]-1H-benzoimidazol-2-yl}-furazan-3-ylamino)-propionitrile]
resistance factors versus parental lines (based on IC50 determinations) (A549): 3.0 fold
resistance factors versus parental lines (based on IC50 determinations) (H460): 5.3 fold
resistance factors versus parental lines (based on IC50 determinations) (SKOV3 resistant 1): 7.6 fold
resistance factors versus parental lines (based on IC50 determinations) (SKOV3 resistant 2): 11.6 fold
HeLa cell number and fraction of cells with a normal phenotype after pooled BUBR1 siRNA (HeLa cells [1]): BUBR1 was required for optimal effects
antiproliferative effect with reduced BUBR1 expression (HeLa cells [2]): dramatically reduced
tumour cell death with reduced BUBR1 expression (HeLa cells [2]): no increase in tumour cell death observed
